According to patent US20230159463A1, “BENZONITRIC HETEROCYCLIC COMPOUND, PREPARATION METHOD THEREFOR AND USE THEREOF” (SHANGHAI ZHONGZE THERAPEUTICS, CO. LTD., priority 2020, published 2023):
pIC50: −log10 of the molar value. Like-named read-outs stand apart in the source and are kept apart here.

How the values were obtained:
HDAC6 = target: T1, HDAC6 (Homo sapiens, UniProt Q9UBN7); assay: HDAC6 inhibitor screening kit (Biovision), in vitro inhibitory activity; type: biochemical
T1 construct: purchased Biovision Company
T1 sequence (Q9UBN7 1-1215): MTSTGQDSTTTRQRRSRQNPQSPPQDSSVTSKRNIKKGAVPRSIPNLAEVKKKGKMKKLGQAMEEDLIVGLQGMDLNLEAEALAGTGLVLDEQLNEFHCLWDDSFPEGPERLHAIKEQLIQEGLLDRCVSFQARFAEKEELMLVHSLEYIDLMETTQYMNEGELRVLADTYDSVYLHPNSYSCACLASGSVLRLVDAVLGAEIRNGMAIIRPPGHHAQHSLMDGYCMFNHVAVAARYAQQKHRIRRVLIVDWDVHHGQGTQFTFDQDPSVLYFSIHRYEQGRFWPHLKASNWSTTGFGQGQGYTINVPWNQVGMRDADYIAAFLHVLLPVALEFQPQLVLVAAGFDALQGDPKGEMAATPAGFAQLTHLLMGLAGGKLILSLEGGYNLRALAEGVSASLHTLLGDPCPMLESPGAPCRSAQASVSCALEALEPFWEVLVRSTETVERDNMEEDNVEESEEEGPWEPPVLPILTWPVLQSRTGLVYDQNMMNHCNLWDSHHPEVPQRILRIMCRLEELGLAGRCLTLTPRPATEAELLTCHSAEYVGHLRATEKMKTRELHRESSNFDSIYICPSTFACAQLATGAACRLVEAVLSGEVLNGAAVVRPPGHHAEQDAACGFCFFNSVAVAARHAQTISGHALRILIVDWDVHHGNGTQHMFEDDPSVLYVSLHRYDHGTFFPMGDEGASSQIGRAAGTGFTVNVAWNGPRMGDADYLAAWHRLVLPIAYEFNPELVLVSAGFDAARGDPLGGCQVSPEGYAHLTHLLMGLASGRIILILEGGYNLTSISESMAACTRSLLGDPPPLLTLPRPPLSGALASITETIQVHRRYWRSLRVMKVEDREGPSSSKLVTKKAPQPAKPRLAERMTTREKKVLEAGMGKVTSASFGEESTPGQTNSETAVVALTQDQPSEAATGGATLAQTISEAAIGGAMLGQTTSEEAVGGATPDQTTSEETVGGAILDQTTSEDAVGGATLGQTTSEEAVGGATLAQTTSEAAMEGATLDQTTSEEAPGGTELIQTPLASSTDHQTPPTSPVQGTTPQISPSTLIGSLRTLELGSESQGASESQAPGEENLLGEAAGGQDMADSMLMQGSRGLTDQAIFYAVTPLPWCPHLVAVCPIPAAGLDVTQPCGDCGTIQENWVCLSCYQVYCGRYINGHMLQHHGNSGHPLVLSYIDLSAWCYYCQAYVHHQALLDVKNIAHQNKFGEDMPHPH
Method: (§1) The in vitro inhibitory activity of histone deacetylase of the compound was determined according to the instructions of HDAC1 and HDAC6 inhibitor screening kit (Biovision Company).

HDAC1 = target: T2, HDAC1 (Homo sapiens, UniProt Q13547); assay: HDAC1 inhibitor screening kit (Biovision), in vitro inhibitory activity; type: biochemical
T2 construct: purchased Biovision Company
Method: as §1

glioma cell line U-87MG = assay: In vitro anti-proliferative activity (CCK8), U-87MG; type: cell-based; conditions: Homo sapiens, read-out: U-87MG (Glioma) Inh % in 10 μM
[1] = test system: myeloma cell line RPMI 8226; assay: In vitro anti-proliferative activity (CCK8), RPMI 8226; type: cell-based; conditions: Homo sapiens, 48 hours, class symbol, read-out: RPMI 8226 (Myeloma) Inh % in 10 μM
Method: (§2) The specific results are shown in the table (unit: […] Test method: The tumor cells in the logarithmic growth phase with good growth status were inoculated into 96-well plates at 4×10^3 per well, and 8 duplicate wells were set up in each group. The cells were cultured in a cell incubator, after the cells adhered to the wall, […]. […] The experiment was repeated 3 times, and the average of the experimental results was taken as the final experimental result, and the inhibition rate was calculated.

[2] = test system: human liver cancer cell line HepG2; assay: In vitro anti-proliferative activity (CCK8), HepG2; type: cell-based; conditions: read-out: Hep G2 (Liver cancer) Inh % in 10 μM
Method: as §2

[3] = test system: human lung cancer cell line A549; assay: In vitro anti-proliferative activity (CCK8), A549; type: cell-based; conditions: read-out: A549 (Lung cancer) Inh % in 10 μM
Method: as §2

[4] = test system: MRC-5 human normal embryo lung fibroblast; assay: In vitro anti-proliferative activity (CCK8), MRC-5 normal cells; type: cell-based; conditions: read-out: MRC-5 (Normal cell line) Inh % in 10 μM
[5] = test system: mixed cells and primary neurons in rat cortex; assay: Protective effect on HCA-induced neuronal cell damage; type: cell-based; conditions: HCA 5 mmol/L; test concentration 0.1, 1.0 and 10.0 μM; compared with Tubastatin A at the same dose
hERG potassium channels = target: T3, hERG potassium channels (Homo sapiens, UniProt Q12809); assay: hERG potassium channel whole-cell patch clamp; type: cell-based; conditions: hERG-HEK293 cells, IKr current
T3 construct: expressed in transfected cells
Description: Whole-cell patch clamp technique was used to record the changes of hERG current (IKr) after different concentrations of compounds acted on HEK293 cells (hERG-HEK293 steady-state cells) expressing hERG potassium channels to study the half inhibitory concentration (IC50) of the above compounds on IKr.

[6] = Maximum tolerance dose by intragastric administration; conditions: ICR, mouse, in vivo, po; mice, single intragastric administration, 14 days observation; read-out: maximum tolerated dose
Method: 40 ICR mice, half male and half […], weighing 18 to 20 g, were divided into 4 groups with 10 animals in each group. After 6 hours of fasting, the test samples in each group were taken with sterilized plastic syringe and orally gavaged at a volume of 0.3 mL/10 g. The general physical signs of animals and the death of animals were recorded at 1, 2 and 4 hours after administration. […] The dead animals were dissected to observe whether there were any visible pathological changes in the organs of the animals, and pathological examinations were carried out on suspicious tissues and organs.

[7] = test system: myeloma cell line RPMI 8226; assay: In vitro anti-proliferative activity (CCK8), RPMI 8226; type: cell-based; conditions: Homo sapiens, RPMI-8226, 48 h, read-out: RPMI 8226 (Myeloma) Inh % in 10 μM
[8] = 10 μM, 48 hours, CCK8, class symbol
[9] = HepG2, 10 μM, 48 hours, CCK8, class symbol
[10] = A549, 10 μM, 48 hours, CCK8, class symbol
[11] = MRC5, 10 μM, 48 hours, CCK8, class symbol

T2 sequence (Q13547 whole entry): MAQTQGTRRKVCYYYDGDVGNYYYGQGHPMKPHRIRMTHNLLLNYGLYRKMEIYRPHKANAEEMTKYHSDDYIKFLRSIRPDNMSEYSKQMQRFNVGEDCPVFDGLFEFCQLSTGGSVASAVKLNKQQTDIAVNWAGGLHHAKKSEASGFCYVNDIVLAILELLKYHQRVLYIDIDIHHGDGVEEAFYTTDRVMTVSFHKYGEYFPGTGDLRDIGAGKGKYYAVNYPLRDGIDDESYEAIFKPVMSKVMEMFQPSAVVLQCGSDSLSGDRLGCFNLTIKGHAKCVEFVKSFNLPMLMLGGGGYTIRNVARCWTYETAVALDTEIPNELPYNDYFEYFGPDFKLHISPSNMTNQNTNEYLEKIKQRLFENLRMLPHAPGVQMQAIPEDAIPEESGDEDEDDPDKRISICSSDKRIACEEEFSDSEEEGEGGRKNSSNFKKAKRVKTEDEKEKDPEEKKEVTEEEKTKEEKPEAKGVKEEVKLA
T3 sequence (Q12809 whole entry): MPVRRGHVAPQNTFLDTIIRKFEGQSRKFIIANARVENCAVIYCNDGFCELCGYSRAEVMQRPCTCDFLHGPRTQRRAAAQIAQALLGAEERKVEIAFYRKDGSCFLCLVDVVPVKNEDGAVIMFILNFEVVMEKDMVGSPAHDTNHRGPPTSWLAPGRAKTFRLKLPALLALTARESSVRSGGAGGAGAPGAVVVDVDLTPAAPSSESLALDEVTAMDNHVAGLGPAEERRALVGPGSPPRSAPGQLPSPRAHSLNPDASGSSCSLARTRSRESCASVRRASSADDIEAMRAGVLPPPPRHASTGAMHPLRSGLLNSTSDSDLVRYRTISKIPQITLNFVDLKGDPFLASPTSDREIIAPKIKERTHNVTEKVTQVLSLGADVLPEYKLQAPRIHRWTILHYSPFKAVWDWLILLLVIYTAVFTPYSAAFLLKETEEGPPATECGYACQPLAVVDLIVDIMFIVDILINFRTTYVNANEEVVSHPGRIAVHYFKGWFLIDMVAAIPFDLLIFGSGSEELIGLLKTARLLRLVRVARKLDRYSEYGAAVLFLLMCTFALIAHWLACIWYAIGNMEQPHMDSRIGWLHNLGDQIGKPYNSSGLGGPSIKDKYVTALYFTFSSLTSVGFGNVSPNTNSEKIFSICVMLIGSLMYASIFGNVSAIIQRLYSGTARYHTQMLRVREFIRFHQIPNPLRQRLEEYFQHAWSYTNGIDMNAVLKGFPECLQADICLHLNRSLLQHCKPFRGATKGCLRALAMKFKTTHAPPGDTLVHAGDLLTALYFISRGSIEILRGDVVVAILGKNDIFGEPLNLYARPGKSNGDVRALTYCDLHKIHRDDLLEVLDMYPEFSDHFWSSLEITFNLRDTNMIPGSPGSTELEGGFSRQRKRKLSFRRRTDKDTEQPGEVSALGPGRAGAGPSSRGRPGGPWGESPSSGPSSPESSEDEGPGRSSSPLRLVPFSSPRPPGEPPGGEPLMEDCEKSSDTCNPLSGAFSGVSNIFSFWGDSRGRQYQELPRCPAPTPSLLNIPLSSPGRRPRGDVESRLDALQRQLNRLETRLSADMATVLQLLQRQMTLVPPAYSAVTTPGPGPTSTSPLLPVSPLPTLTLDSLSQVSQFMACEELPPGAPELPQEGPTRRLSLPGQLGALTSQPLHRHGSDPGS

Structure (SMILES)	IC50 (HDAC6)	IC50 (HDAC1)	inhibition at 10 µM (glioma cell line U-87MG; [8])	inhibition at 10 µM [1]	inhibition at 10 µM [2, 9]	inhibition at 10 µM [3, 10]	inhibition at 10 µM [4, 11]	protective effect against HCA-induced neuronal excitotoxicity (cell survival rate) [5]	pIC50 (hERG potassium channels)	MTD at 14 days [6]	inhibition at 10 µM (glioma cell line U-87MG; 48 h)	inhibition at 10 µM ([2]; HepG2, 48 h)	inhibition at 10 µM ([3]; A549, 48 h)	inhibition at 10 µM ([4]; MRC5, 48 h)	inhibition at 10 µM [7]
COc1ccc2c(c1)CCCCN2Cc1ccc(C(=O)NO)cc1 [Compound T-5, 4-((7-methoxy-2,3,4,5-tetrahydro-1H-benzo[b]azepin-1-yl)methyl)-N-hydroxybenzamide]	5.6 nM	257 nM	80 to 90%	90 to 100%	90 to 100%	70 to 80%	< 50%	stronger than that of the HDAC6 inhibitor compound Tubastatin A	< 5.00	> 1000 mg/kg	–	–	–	–	–
O=C(NO)c1ccc(CN2CCCOc3ccccc32)cc1 [Compound T-15, 4-((3,4-dihydrobenzo[b][1,4]oxazepin-5(2H)-yl)methyl)-N-hydroxybenzamide]	6.2 nM	367 nM	80 to 90%	90 to 100%	90 to 100%	50 to 70%	< 50%	stronger than that of the HDAC6 inhibitor compound Tubastatin A	< 5.00	> 1000 mg/kg	–	–	–	–	–
O=C(NO)c1ccc(CN2CCCSc3ccccc32)cc1 [Compound T-16, 4-((3,4-dihydrobenzo[b][1,4]thiazepin-5(2H)-yl)methyl)-N-hydroxybenzamide]	1.2 nM	254 nM	–	–	–	–	–	stronger than that of the HDAC6 inhibitor compound Tubastatin A	< 5.00	> 1000 mg/kg	90 to 100%	90 to 100%	70 to 80%	< 50%	90 to 100%
O=C(NO)c1ccc(CN2CCCC(O)c3ccccc32)cc1 (stereo not shown) [Compound T-19, 4-((5-hydroxy-2,3,4,5-tetrahydro-1H-benzo[b]azepin-1-yl)methyl)-N-hydroxybenzamide]	6.4 nM	442 nM	90 to 100%	90 to 100%	90 to 100%	50 to 70%	< 50%	stronger than that of the HDAC6 inhibitor compound Tubastatin A	< 5.00	> 1000 mg/kg	–	–	–	–	–
COc1ccc(C2CC2)c2c1CCN(Cc1ccc(C(=O)NO)cc1)CC2 [Compound T-28, 4-((6-cyclopropyl-9-methoxy-1,2,4,5-tetrahydro-3H-benzo[d]azepin-3-yl)methyl)-N-hydroxybenzamide]	22 nM	> 500 nM	80 to 90%	90 to 100%	90 to 100%	50 to 70%	< 50%	stronger than that of the HDAC6 inhibitor compound Tubastatin A	< 5.00	> 1000 mg/kg	–	–	–	–	–
O=C(CCCCCCNC(=O)c1cnc(N(c2ccccc2)c2ccccc2)nc1)NO [Rocilinostat (ACY-1215), Rocilinostat, reference compound]	–	–	–	–	–	–	–	–	–	–	42.1%	93.4%	51.6%	46.7%	99.3%
